Each structure is given as a SMILES string.

The target in data set [1] is T1, RXR receptor (Homo sapiens, UniProt P19793).
T1 construct: expressed in transfected cells
T1 sequence (P19793 1-462): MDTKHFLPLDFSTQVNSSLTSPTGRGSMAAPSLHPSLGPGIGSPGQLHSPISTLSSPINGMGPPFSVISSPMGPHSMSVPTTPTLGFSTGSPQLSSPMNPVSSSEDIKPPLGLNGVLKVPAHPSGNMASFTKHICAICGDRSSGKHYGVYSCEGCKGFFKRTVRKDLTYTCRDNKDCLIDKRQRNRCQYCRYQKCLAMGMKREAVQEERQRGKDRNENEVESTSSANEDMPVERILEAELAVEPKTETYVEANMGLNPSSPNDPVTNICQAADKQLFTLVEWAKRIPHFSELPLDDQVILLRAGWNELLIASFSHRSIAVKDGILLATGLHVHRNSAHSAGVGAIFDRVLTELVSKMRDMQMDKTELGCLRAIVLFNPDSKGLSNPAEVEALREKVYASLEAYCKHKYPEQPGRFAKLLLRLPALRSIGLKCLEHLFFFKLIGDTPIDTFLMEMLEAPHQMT
The data set is described as follows: RXR activation (transient transfection reporter assay). The format is cell-based. The note with it: 1 μM compared to 9-cis-RA at equal concentration. The source says:
RXR agonists activate the RXR receptor when interacting with RXR by binding to its binding pocket. This activation can be independent of whether the agonist, while interacting with portions of the ligand binding pocket, also interacts with side pocket 1. Activation, also often referred to as transcriptional activation, of RXR by agonists can be measured by a number of commonly used assays where the effect of the agonist ligand interacting with the RXR ligand binding pocket is to stimulate or induce transcription of a gene or genes in a cell. In one particular embodiment, transient transfection experiments (as described essentially by Zhang, et al. (1996) Negative Regulation of Peroxisome Proliferator—Activated Receptor—γ Gene Expression Contributes to the Antiadipogenic effects of Tumor Necrosis Factor—α. Mol. Endo. 10:1457-1456) can be used. In these cases, full length RXR proteins are expressed in living cells. Alternatively, hybrid proteins that contain a portion of another DNA binding domain and the ligand binding portion of the human RXRα receptor can be expressed in living cells instead of the full length RXR protein. Such hybrid proteins can bind to and activate specific reporter genes introduced into the same living cell and activation of such reporter genes is measured. The assays described here are very commonly used today by people skilled in the art of molecular biology experimenting. Transient transection assays are often used instead of ligand binding assays and can serve to measure or estimate an affinity of an RXR agonist ligand for RXR protein. The effective dose fifty (ED50, also called EC50) is the concentration of the ligand necessary to lead to one half maximal activation of the reporter gene in a living cell. Compounds that show 60% of the activity of the agonist 9-cis retenoic acid at 10^−6 M can be considered an RXR activator/agonist. Compounds which show 70% 80% 90% of the activity of the agonist 9-cis retinoic acid are also provided.
To confirm that the computer modeling/design of a compound does result in an RXR activator or RXR agonist, i.e. a compound that leads to RXR activation or transcriptional activation, commonly used assays can be applied, where the effect of the agonist or activator, interacting with the RXR ligand binding pocket is to stimulate or induce transcription of a gene or genes in a cell. In one particular embodiment, transient transfection experiments (as described essentially by Zhang, et al. (1996) Negative Regulation of Peroxisome Proliferator—Activated Receptor—γ Gene Expression Contributes to the Antiadipogenic effects of Tumor Necrosis Factor—α. Mol. Endo. 10:1457-1456) can be used. In these cases, full length RXR proteins are expressed in living cells. Alternatively, hybrid proteins that contain a portion of another DNA, binding domain and the ligand binding portion of the human RXRα receptor can be expressed in living cells instead of the fall length RXR protein. Such hybrid proteins can bind to and activate specific reporter genes introduced into the same living cell and activation of such reporter genes is measured (Brand, A. H. & Perrimon, 1993, Development, 118:401-415; Moya-Camarena, S. Y. et.al., 1999, J. Lipid Res., 40:1426:1433; Yi, Y. W. et al., 2000, Biochem. Biophys. Res. Commun., 272:193-198, each are herein incorporated by reference at least for material related to reporter assays). These assays not only measure binding of the ligand to its target, which could also be measured by an in vitro binding assay, but also measure the agonistic or activator activity of the compound. In such an assay, new compounds are compared to a standard activator like compound I or the natural agonist of RXR: 9-cis retinoic acid (see Example 7). For instance, all compounds that show at a given concentration at least 60% of the activity of 9-cis retinoic acid can be considered useful activators.

The test system of data set [2] is BALB/c mice. The data set is described as follows: Effect on serum triglyceride levels in wild type BALB/c mice. The format is in vivo, mouse. To be noted: FIG. 12. The protocol:
The animals were treated with a single daily oral dose of the test compound suspended in sesame oil (dose volume of 5 ml/kg). […], Animas treated with 10 and 30 mg/kg of Compound 1, which are doses that are 30 and 100 times the efficacious does in diabetic db/db mice, respectively, caused no increase in serum triglyceride levels compared to vehicle treated control animals.
Test compounds are tested in wild type mice at 10-100 times the efficacious dose in diabetic mice. Typically, adult male BALB/c mice are housed in a fixed 12—12-hr artificial light-dark cycle, and maintained on a standard rodent diet. The animals are treated with a single daily oral dose of the test compound suspended in sesame oil (dose volume of 5 ml/kg) as also described in the examples. Approximately two weeks later the animals are bled from the tail vein, then necropsied following sacrifice by carbon dioxide asphyxiation. Several serum biochemical parameters are measured. Of special significance is the effect the selected compounds have on serum triglyceride levels compared to vehicle treated control animals.
For these studies, adult male BALB/c mice were housed in a fixed 12—12-hr artificial light-dark cycle, and maintained on a standard rodent diet. The animals were treated with a single daily oral dose of the test compound suspended in sesame oil (dose volume of 5 ml/kg).

Consider `Cc1cc2c(cc1-c1cc(C=C3SC(=O)NC3=O)ccc1OC(F)(F)F)C(C)(C)CCC2(C)C` [Compound 1], for which the “RXR Activation” value in data set [1] came to 110%. The “serum triglyceride levels compared to vehicle treated control animals” value in data set [2] (10 and 30 mg/kg, daily oral, 14 days) is on record as “no increase”. In data set [2] (10 and 30 mg/kg/day for 10 days), the “triglyceride levels compared to vehicle treated controls” value was “does not change”.

These data come from patent US7265139B2, “RXR activating molecules” (Incyte San Diego Inc., priority 2001, dated 2007).
